Laboratory results reported in PubChem BioAssay (NCI).
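Following 48 hours of exposure in 96-well plates, responses at five concentrations were used to interpolate endpoints linearly. At the TGI there is no net growth.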

Legend:
Assay in all cases: DTP human tumour cell line panel, 48 h
786-0 renal = system: 786-0 renal
A549 NSCLC = system: A549 NSCLC
ACHN renal = system: ACHN renal
BT-549 breast = system: BT-549 breast
CAKI-1 renal = system: CAKI-1 renal
CCRF-CEM leukemia = system: CCRF-CEM leukemia
COLO 205 colon = system: COLO 205 colon
DU-145 prostate = system: DU-145 prostate
EKVX NSCLC = system: EKVX NSCLC
HCC-2998 colon = system: HCC-2998 colon
HCT-116 colon = system: HCT-116 colon
HCT-15 colon = system: HCT-15 colon
HL-60(TB) leukemia = system: HL-60(TB) leukemia
HOP-62 NSCLC = system: HOP-62 NSCLC
HOP-92 NSCLC = system: HOP-92 NSCLC
HS 578T breast = system: HS 578T breast
HT29 colon = system: HT29 colon
IGROV1 ovarian = system: IGROV1 ovarian
KM12 colon = system: KM12 colon
LOX IMVI melanoma = system: LOX IMVI melanoma
M14 melanoma = system: M14 melanoma
MALME-3M melanoma = system: MALME-3M melanoma
MCF7 breast = system: MCF7 breast
MDA-MB-231 breast = system: MDA-MB-231 breast
MDA-MB-435 = system: MDA-MB-435
MDA-N = system: MDA-N
MOLT-4 leukemia = system: MOLT-4 leukemia
NCI-H226 lung = system: NCI-H226 lung
NCI-H23 lung = system: NCI-H23 lung
NCI-H460 lung = system: NCI-H460 lung
NCI-H522 lung = system: NCI-H522 lung
NCI/ADR-RES ovarian = system: NCI/ADR-RES ovarian
OVCAR-3 ovarian = system: OVCAR-3 ovarian
OVCAR-4 ovarian = system: OVCAR-4 ovarian
OVCAR-5 ovarian = system: OVCAR-5 ovarian
OVCAR-8 ovarian = system: OVCAR-8 ovarian
PC-3 prostate = system: PC-3 prostate
RPMI-8226 leukemia = system: RPMI-8226 leukemia
RXF 393 renal = system: RXF 393 renal
SF-268 CNS = system: SF-268 CNS
SF-295 CNS = system: SF-295 CNS
SF-539 CNS = system: SF-539 CNS
SK-MEL-2 melanoma = system: SK-MEL-2 melanoma
SK-MEL-28 melanoma = system: SK-MEL-28 melanoma
SK-OV-3 ovarian = system: SK-OV-3 ovarian
SN12C renal = system: SN12C renal
SNB-19 CNS = system: SNB-19 CNS
SNB-75 CNS = system: SNB-75 CNS
SR leukemia = system: SR leukemia
SW-620 colon = system: SW-620 colon
T-47D breast = system: T-47D breast
TK-10 renal = system: TK-10 renal
U251 CNS = system: U251 CNS
UACC-257 melanoma = system: UACC-257 melanoma
UACC-62 melanoma = system: UACC-62 melanoma
UO-31 renal = system: UO-31 renal

Q: What does the source list for CCSC1=CC(=O)c2nc3ccccc3c3ccnc1c23?
A: TGI (786-0 renal): 11.4 µM; TGI (A549 NSCLC): 22.9 µM; TGI (ACHN renal): > 44.7 µM; TGI (BT-549 breast): 26.3 µM; TGI (CAKI-1 renal): 9.12 µM; TGI (CCRF-CEM leukemia): > 25.9 µM; TGI (COLO 205 colon): > 32.8 µM; TGI (DU-145 prostate): 15.5 µM; TGI (EKVX NSCLC): 7.59 µM; TGI (HCC-2998 colon): 25 µM; TGI (HCT-116 colon): > 25.1 µM; TGI (HCT-15 colon): 7.37 µM; TGI (HL-60(TB) leukemia): 7.74 µM; TGI (HOP-62 NSCLC): > 51.3 µM; TGI (HOP-92 NSCLC): 38.6 µM; TGI (HS 578T breast): 14.7 µM; TGI (HT29 colon): 16.9 µM; TGI (IGROV1 ovarian): 9.4 µM; TGI (KM12 colon): 25.2 µM; TGI (LOX IMVI melanoma): > 36.1 µM; TGI (M14 melanoma): 6.15 µM; TGI (MALME-3M melanoma): 3.32 µM; TGI (MCF7 breast): 4.79 µM; TGI (MDA-MB-231 breast): 31.8 µM; TGI (MDA-MB-435): 3.43 µM; TGI (MDA-N): 4 µM; TGI (MOLT-4 leukemia): 15.3 µM; TGI (NCI-H226 lung): 27.1 µM; TGI (NCI-H23 lung): 11.4 µM; TGI (NCI-H460 lung): 23.8 µM; TGI (NCI-H522 lung): 3.78 µM; TGI (NCI/ADR-RES ovarian): > 30.1 µM; TGI (OVCAR-3 ovarian): > 23.1 µM; TGI (OVCAR-4 ovarian): 7.53 µM; TGI (OVCAR-5 ovarian): 15 µM; TGI (OVCAR-8 ovarian): > 100 µM; TGI (PC-3 prostate): > 23.3 µM; TGI (RPMI-8226 leukemia): > 31.6 µM; TGI (RXF 393 renal): 18.2 µM; TGI (SF-268 CNS): > 22 µM; TGI (SF-295 CNS): 31 µM; TGI (SF-539 CNS): 13.2 µM; TGI (SK-MEL-2 melanoma): 5.6 µM; TGI (SK-MEL-28 melanoma): 25.3 µM; TGI (SK-OV-3 ovarian): > 100 µM; TGI (SN12C renal): 8.43 µM; TGI (SNB-19 CNS): > 87.1 µM; TGI (SNB-75 CNS): 26.6 µM; TGI (SR leukemia): 15.5 µM; TGI (SW-620 colon): > 21.4 µM; TGI (T-47D breast): 78.2 µM; TGI (TK-10 renal): 26.5 µM; TGI (U251 CNS): 14.5 µM; TGI (UACC-257 melanoma): 4.19 µM; TGI (UACC-62 melanoma): 4.32 µM; TGI (UO-31 renal): 19 µM
